biological target: T1, human HSD1 (recombinant HSD1) (Homo sapiens, UniProt P28845); test: In vitro HSD1 activity inhibitory action (SPA, conversion of cortisone to cortisol); type: biochemical; conditions: recombinant human HSD1 expressed in baculo-virus system, 16 nM 3H cortisone, 500 μM NADPH, room temperature, 90 min
T1 construct: made in house
Method: In Vitro HSD1 (Hydroxysteroid Dehydrogenase 1) Activity Inhibitory Action
The HSD1 inhibitory activity was examined by quantitative determination by an SPA (scintillation proximity assay) system of the suppressive action on the conversion from cortisone to cortisol using human HSD1 (hereinafter recombinant HSD1) expressed using a baculo-virus system as an enzyme source. For the reaction, a reagent was added to a 96 well plate (96 well Opti-plates™-96 (Packard)) to the following final concentration and a volume of 100 μl was reacted at room temperature for 90 min. The reaction solution used was 0.1 μg/mL recombinant HSD1,500 μM NADPH, 16 nM ^3H cortisone (Amersham Biosciences, 1.78 Tbq/mol) dissolved in 0.1% BSA (Sigma)-containing PBS and the test drug was 2 μl of a compound solution (dissolved in DMSO). After 90 min, the reaction was stopped by adding PBS (40 μl, containing 0.1% BSA (Sigma)) containing 0.08 μg of anti-cortisol mouse monoclonal antibody (East Coast Biologics), 365 μg SPA PVT mouse antibody-binding beads (Amersham Biosciences) and 175 μM carbenoxolone (Sigma) to the reaction solution. After the completion of the reaction, the plate was incubated overnight at room temperature and the radioactivity was measured by Topcount (Packard). For control, the value (0% inhibition) of the well containing 2 μl of DMSO instead of the test drug was used, and for positive control, the value (100% inhibition) of the well containing carbenoxolone instead of the test drug at the final concentration of 50 μM was used. The inhibition (%) of the test drug was calculated by ((value of control−value of test drug)/(value of control−value of positive control))×100 (%). The IC50 value was analyzed using a computer-based curve fitting soft.

T1 sequence (P28845 whole entry): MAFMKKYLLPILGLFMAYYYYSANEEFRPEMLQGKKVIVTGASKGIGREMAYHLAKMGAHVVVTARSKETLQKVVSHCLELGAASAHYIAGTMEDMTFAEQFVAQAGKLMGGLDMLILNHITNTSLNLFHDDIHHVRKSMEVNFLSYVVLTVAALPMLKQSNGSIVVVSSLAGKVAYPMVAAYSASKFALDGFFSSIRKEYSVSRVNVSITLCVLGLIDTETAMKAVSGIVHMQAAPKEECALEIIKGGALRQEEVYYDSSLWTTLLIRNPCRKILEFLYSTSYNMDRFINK

SMILES | IC50 [nM]
Cc1c(-c2ccc(Cl)cc2Cl)n[nH]c1C1(c2ccccc2)CC1 [Ex. 1-1, 3-(2,4-dichlorophenyl)-4-methyl-5-((1-phenylcyclopropane)-1-yl)-pyrazole] | < 10
Clc1ccc(-c2cc(CCc3ccccc3Cl)n[nH]2)c(Cl)c1 [Ex. 1-2] | 10 to 1000
Cc1c(CCc2ccccc2Cl)n[nH]c1-c1ccc(Cl)cc1Cl [Ex. 1-3] | < 10
CCOC(=O)c1c(-c2ccc(Cl)cc2Cl)n[nH]c1C1(c2ccccc2)CC1 [Ex. 1-4] | 10 to 1000
Clc1ccc(-c2cc(C3(c4ccccc4)CC3)[nH]n2)c(Cl)c1 [Ex. 1-5] | 10 to 1000
OCc1c(-c2ccc(Cl)cc2Cl)n[nH]c1Cc1ccc(F)cc1 [Ex. 1-8] | 10 to 1000
Cc1c(-c2ccc(Cl)cc2Cl)n[nH]c1Cc1ccc(F)cc1 [Ex. 1-9] | 10 to 1000
Cc1c(C2CCN(c3c(Cl)cncc3Cl)CC2)n[nH]c1C1(c2ccccc2)CC1 [Ex. 1-10] | 10 to 1000
Cc1c(C2CCN(c3ncccc3Cl)CC2)n[nH]c1C1(c2ccccc2)CC1 [Ex. 1-11] | < 10
CC(C)c1c(-c2ccccc2)n[nH]c1C1(c2ccc(F)cc2)CC1 [Ex. 1-12] | < 10
Cc1c(-c2ccccc2)n[nH]c1C1(c2ccc(F)cc2)CC1 [Ex. 1-13] | < 10
Cc1c(-c2ccc(N3CCOC3=O)cc2Cl)n[nH]c1C1(c2ccccc2)CC1 [Ex. 1-14] | 10 to 1000
Cc1c(-c2ccccn2)n[nH]c1C1(c2ccc(F)cc2)CC1 [Ex. 1-15] | < 10
Cc1c(C2(c3ccc(F)cc3)CC2)n[nH]c1C1(c2ccc(F)cc2)CC1 [Ex. 1-16] | < 10

Source: patent US7354938B2, “Pyrazole compounds and uses related thereto” (Amgen Inc., priority 2004, dated 2008)
